According to ChEMBL document CHEMBL1201862, “PubChem BioAssay data set” (2004):
Where “and” joins values, the source holds several entries; their conditions need not be identical. Identical values can stand only once.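 Step 1: Grow cells in 96-well plates. Step 2: Expose to compound for 48 hours at 5 concentrations. Step 3: Interpolate endpoints linearly; if unreached, use highest concentration. GI50 = concentration required for 50% inhibition of growth.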 Calls of active or inactive are those of the source. No stated cut-off is given here; in the data, active = GI50 up to about 1.1 µM and inactive = higher.

How the values were obtained:
Test in all cases: DTP human tumour cell line panel, 48 h
786-0 = test system: 786-0
A498 = test system: A498
SF-539 = test system: SF-539
HOP-92 = test system: HOP-92
MOLT-4 = test system: MOLT-4
CCRF-CEM = test system: CCRF-CEM
DU-145 = test system: DU-145
A549 = test system: A549
SW-620 = test system: SW-620
NCI-H460 = test system: NCI-H460
UO-31 = test system: UO-31
PC-3 = test system: PC-3
SF-295 = test system: SF-295
HCC 2998 = test system: HCC 2998
MDA-MB-435 = test system: MDA-MB-435
Malme-3M = test system: Malme-3M
U-251 = test system: U-251
MDA-N = test system: MDA-N
SNB-75 = test system: SNB-75

Compound	GI50 (786-0)	GI50 (A498)	GI50 (SF-539)	GI50 (HOP-92)	GI50 (MOLT-4)	GI50 (CCRF-CEM)	GI50 (DU-145)	GI50 (A549)	GI50 (SW-620)	GI50 (NCI-H460)	GI50 (UO-31)	GI50 (PC-3)	GI50 (SF-295)	GI50 (HCC 2998)	GI50 (MDA-MB-435)	GI50 (Malme-3M)	GI50 (U-251)	GI50 (MDA-N)	GI50 (SNB-75)
COc1cc(/C=C\C(=O)O)ccc1OCc1ccccc1	> 100 µM (inactive)	> 100 µM (inactive)	> 100 µM (inactive)	20.3 µM (inactive)	> 100 µM (inactive)	> 100 µM (inactive)	> 100 µM (inactive)	> 100 µM (inactive)	> 100 µM (inactive)	> 100 µM (inactive)	> 100 µM (inactive)	> 100 µM (inactive)	> 100 µM (inactive)	> 100 µM (inactive)	> 100 µM (inactive)	0.053 µM (active)	> 100 µM (inactive)	> 100 µM (inactive)	
OC(C/C=N/N=C/CC(O)(C(F)(F)Cl)C(F)(F)Cl)(C(F)(F)Cl)C(F)(F)Cl	> 10 µM (inactive)	> 10 µM (inactive)	> 10 µM (inactive)	7.19 µM (inactive)	> 10 µM (inactive)	> 10 µM (inactive)	> 10 µM (inactive)	> 10 µM (inactive)	> 10 µM (inactive)	> 10 µM (inactive)	> 10 µM (inactive)	> 10 µM (inactive)	> 10 µM (inactive)	> 10 µM (inactive)	> 10 µM (inactive)	> 10 µM (inactive)	> 10 µM (inactive)	> 10 µM (inactive)	> 10 µM (inactive)
COc1ccc(Oc2ccc3cc4c(cc3c2O)OCO4)c2cc(C)oc12	35.8 µM (inactive)	38.3 µM (inactive)	20.2 µM (inactive)	25.2 µM (inactive)	14.3 µM (inactive)	21.7 µM (inactive)	39.7 µM (inactive)	30.1 µM (inactive)	27.2 µM (inactive)	21.5 µM (inactive)	29.1 µM (inactive)	24.8 µM (inactive)	33.5 µM (inactive)	23.2 µM (inactive)	22.3 µM (inactive)	24.2 µM (inactive)		29.6 µM (inactive)	33.4 µM (inactive)
CC(=O)OC1CC2C(=O)CC1(C)C2(C)C (configuration not stated)	> 100 µM (inactive)	> 100 µM (inactive)	> 100 µM (inactive)	> 100 µM (inactive)	> 100 µM (inactive)	> 100 µM (inactive)	> 100 µM (inactive)	> 100 µM (inactive)	> 83.8 µM (inactive)	> 100 µM (inactive)	> 100 µM (inactive)	> 100 µM (inactive)	> 100 µM (inactive)	> 100 µM (inactive)	> 100 µM (inactive)	> 100 µM (inactive)	> 100 µM (inactive)	> 100 µM (inactive)	67.9 µM (inactive) and > 83.6 µM (inactive)
CC(=O)OC1/C(=C/c2ccc([N+](=O)[O-])cc2)C[C@H]2[C@@H]3CC=C4C[C@@H](OC(C)=O)CC[C@]4(C)[C@H]3CC[C@]12C (some centres not stated)	70.6 µM (inactive)	> 52.6 µM (inactive)	59.6 µM (inactive)	34.4 µM (inactive)		> 40.6 µM (inactive)	> 100 µM (inactive)	> 100 µM (inactive)	> 100 µM (inactive)	> 100 µM (inactive)	> 100 µM (inactive)	> 100 µM (inactive)	> 73.6 µM (inactive)	> 100 µM (inactive)	> 100 µM (inactive)	> 100 µM (inactive)	46 µM (inactive)	> 100 µM (inactive)	
COc1ccc2cc(C(C)C(=O)N3CCOC3=O)ccc2c1 (configuration not stated)	> 100 µM (inactive)	71.4 µM (inactive)	> 100 µM (inactive)	> 100 µM (inactive)	> 100 µM (inactive)	> 100 µM (inactive)	> 100 µM (inactive)	> 100 µM (inactive)	> 100 µM (inactive)	> 100 µM (inactive)	> 100 µM (inactive)	> 100 µM (inactive)	> 100 µM (inactive)	> 100 µM (inactive)	> 100 µM (inactive)	> 100 µM (inactive)	> 100 µM (inactive)	> 100 µM (inactive)	44.7 µM (inactive)
FC(F)(F)c1ccc2c(c1)nc(Cc1ccc(Cl)c(Cl)c1)n2CC1CCCN2CCCCC12 (configuration not stated)	16.2 µM (inactive)	25.4 µM (inactive)	18.9 µM (inactive)	22.9 µM (inactive)	37.4 µM (inactive)		50.6 µM (inactive)	18.1 µM (inactive)	34.8 µM (inactive)	19.6 µM (inactive)	0.169 µM (active)	30.5 µM (inactive)	22.9 µM (inactive)	8.95 µM (inactive)	30.4 µM (inactive)	13.6 µM (inactive)	23.1 µM (inactive)	18.2 µM (inactive)	28.6 µM (inactive)
Nc1ccc(-c2nc3cc(F)ccc3s2)cc1	> 85.3 µM (inactive)	33.5 µM (inactive)	> 66.1 µM (inactive)	23.1 µM (inactive)	> 82.2 µM (inactive)	> 45.6 µM (inactive)	30.5 µM (inactive)	87.7 µM (inactive)	> 100 µM (inactive)	7.98 µM (inactive)	> 60 µM (inactive)	16.5 µM (inactive)	25.5 µM (inactive)	26.3 µM (inactive)	> 100 µM (inactive)	> 100 µM (inactive)	39.4 µM (inactive)	> 100 µM (inactive)	11.2 µM (inactive)
